Experiments:
[1] = Mammalian Toxicity, peroral toxicity to rat; assay type: in vivo; conditions: in vivo, po, read-out: A.O. Rat LD50
Experimental: Certain compounds were also evaluated to determine their peroral toxicity to mammals by conventional methods. The representative animal selected for this experiment was the rat.

[2] = test system: Bean; experiment: Phytotoxicity Test, bean; conditions: 2500 ppm spray, ten days
Experimental: (§1) Experiments were also conducted to determine the phytotoxicity of representative compounds with respect to healthy fresh plants. […] The test plants were sprayed in accordance with the procedure described above for the Mite Foliage Spray Test so as to deliver approximately 100 milliliters of test solution to the leaves of each plant tested. The sprayed plants and controls were set aside for approximately one hour to allow the foliage to dry and were then placed in the greenhouse. After ten days the plants were visually inspected to determine the extent of foliage injury. A rating of 1 indicates no perceptible injury; 5 indicates the plant was dead and ratings of 2, 3 and 4 indicate intermediate degrees of injury based upon the number and extent to which leaves were injured.

[3] = test system: Corn; experiment: Phytotoxicity Test, corn; conditions: 2500 ppm spray, ten days
Experimental: as §1

[4] = test system: Cotton; experiment: Phytotoxicity Test, cotton; conditions: 2500 ppm spray, ten days
Experimental: as §1

[5] = test system: Tom; experiment: Phytotoxicity Test, tomato; conditions: 2500 ppm spray, ten days
Experimental: as §1

[6] = test system: Soy; experiment: Phytotoxicity Test, soy; conditions: 2500 ppm spray, ten days
Experimental: as §1

[7] = test system: root-knot nematode, Meloidogyne incognita var. acrita; experiment: Nematocide Test; note: key: 1: severe galling, equal to untreated plants; 2: moderate galling; 3: light galling; 4: very light galling; 5: no galling, perfect control; assay type: in vivo; conditions: 3.33 m.g. per jar; cucumber, approximately 3 weeks
Experimental: The test organism used was the infective migratory larvae of the root-knot nematode, Meloidogyne incognita var. acrita, reared in the greenhouse on roots of cucumber plants. Infected plants were removed from the culture, and the roots are chopped very finely. A small amount of this inoculum was added to a pint jar containing approximately 180 cc. of soil. The jars were capped and incubated for one week at room temperature. During this period eggs of the nematode were hatched, and the larval forms migrated into the soil.
Ten ml. of the test formulation were added to each of the two jars for each dosage tested. Following the addition of chemical, the jars were capped, and the contents thoroughly mixed on a ball mill for 5 minutes.
The test compounds were formulated by a standard procedure of solution in acetone addition of an emulsifier, and dilution with water. Primary screening tests were conducted at 3.33 m.g. of the test compound per jar.
The jars were left capped at room temperature for a period of 48 hours, and the contents then transferred to 3 inch pots. Subsequently, the pots were seeded to cucumber as an indicator crop and placed in the greenhouse where they were cared for in the normal fashion for approximately 3 weeks.
The cucumber plants were then taken from the pots, the soil removed from the roots; and the amount of galling visually rated.
In the test for activity against nematodes (nem) activity was rated as follows: […]

SMILES | LD50 [1] | Phytotoxicity: Bean [2] | Phytotoxicity: Corn [3] | Phytotoxicity: Cotton [4] | Phytotoxicity: Tom [5] | Phytotoxicity: Soy [6] | Biological Activity: Nem (nematode, galling rating) [7]
CSC(C)=NOC(=O)N(C)SN(C)C(=O)Oc1ccc(Oc2ccccc2)cc1 [XXXIV] | > 640 mg/kg | 1 | 1 | 1 | 1 | 1 | 
CSC(C)=NOC(=O)N(C)SN(C)C(=O)Oc1ccccc1C1OCCO1 [XXXVII] |  | 2 | 1 | 2 | 1 | 2 | 4
C#CCOC(=O)N(C)SN(C)C(=O)ON=C1SC(C)(C)C(=O)N1C [IV, N-[N-methyl-N-propargyloxycarbonylamino]N-[3,5,5-trimethylthiazolidin-4-one-2 O-(N-methylcarbamoyl)oxime]sulfide] |  | 1 | 1 | 2 | 2 | 2 | 1
CSC(C)=NOC(=O)N(C)SN(C)C(=O)Oc1ccc(C(C)(C)C)cc1Cl [XXIX] |  | 1 | 1 | 1 | 1 | 1 | 5
C#CCOc1ccccc1OC(=O)N(C)SN(C)C(=O)ON=C(C)SC [XXXIX] | 160 mg/kg | 1 | 1 | 2 | 1 | 2 | 3
CN(SN(C)C(=O)Oc1cccc2c1OC(C)(C)C2)C(=O)ON=C1CSCCS1 [XXIV, N-[2-O-(N-methylcarbamoyl)oximino-1,4-dithiane]N-[2,3-dihydro-2,2-dimethyl-7-(N-methylcarbamoyloxy)benzofuran]sulfide] | 20 mg/kg | 1 | 1 | 2 | 1 | 2 | 5
CCC(C)c1cc([N+](=O)[O-])cc([N+](=O)[O-])c1OC(=O)N(C)SN(C)C(=O)ON=C(C)SC (stereo not shown) [XIX, N-[1-Methylthioacetaldehyde O-(N-methylcarbamoyl)oxime]N-[2,4-dinitro-6-sec-butylphenyl-(N-methylcarbamoyloxy)]sulfide] |  | 1 | 2 | 2 | 2 | 2 | 1
CSC(C)=NOC(=O)N(C)SN(C)C(=O)Oc1cccc(N(C)C)c1 [XX, N-[1-Methylthioacetaldehyde O-(N-methylcarbamoyl)oxime]N-[3-(N',N'-dimethylamino)phenyl-(N-methylcarbamoyloxy)]sulfide] |  | 1 | 1 | 2 | 1 | 2 | 4
CSC(C)=NOC(=O)N(C)SN(C)C(=O)ON=C1CSCCS1 [Example II] | 190 mg/kg | 1 | 1 | 1 | 1 | 1 | 5
CSC(C)=NOC(=O)N(C)SN(C)C(=O)ON=C1SCSCS1 [XL] |  | 1 | 1 | 1 | 1 | 1 | 5
CSC(C)=NOC(=O)N(C)SN(C)C(=O)Oc1ccc(-c2ccccc2)cc1 [XXXII] |  | 2 | 1 | 2 | 1 | 1 | 4
CSC(C)=NOC(=O)N(C)SN(C)C(=O)Oc1ccccc1OC(C)C [XXXVIII] | 63.5 mg/kg | 1 | 1 | 1 | 1 | 2 | 
C=CCc1ccc(OC(=O)N(C)SN(C)C(=O)ON=C(C)SC)c(OC)c1 [XXXIII] |  | 1 | 1 | 3 | 1 | 1 | 5
CSC(C)=NOC(=O)N(C)SN(C)C(=O)Oc1cccc(C(C)C)c1 [XXVIII] | 40 mg/kg | 1 | 1 | 2 | 1 | 2 | 
C#CCOC(=O)N(C)SN(C)C(=O)Oc1ccc(C)c(C)c1 [XXVII] |  | 1 | 1 | 2 | 1 | 2 | 5
CC(C)c1ccc(OC(=O)N(C)SN(C)C(=O)ON=C2CSCCS2)cc1 [XXV, N-[2-O-(N-methylcarbamoyl)oximino-1,4-dithiane]N-[4-isopropyl-(N-methylcarbamoyloxy)benzene]sulfide] |  | 1 | 1 | 3 | 1 | 1 | 
CSC(C)=NOC(=O)N(C)SN(C)C(=O)Oc1ccc(NC=O)c(C)c1 [XXI, N-[1-Methylthioacetaldehyde O-(N-methylcarbamoyl)oxime]N-[4-formylamino-3-methylphenyl-(N-methylcarbamoyloxy)]sulfide] |  | 1 | 1 | 1 | 1 | 1 | 4
CSC(C)=NOC(=O)N(C)SN(C)C(=O)Oc1cccc(Oc2ccccc2)c1 [XXXV] |  | 1 | 1 | 1 | 1 | 1 | 
C#CCOC(=O)N(C)SN(C)C(=O)Oc1cccc2ccccc12 [XXVI] |  | 1 | 1 | 1 | 1 | 2 | 4
CCCCCCCCCCCCc1ccc(OC(=O)N(C)SN(C)C(=O)ON=C(C)SC)cc1 [XXX] |  | 1 | 1 | 2 | 1 | 1 | 4
CSC(C)=NOC(=O)N(C)SN(C)C(=O)ON=C(SC)C(=O)N(C)C [XI, N-[1-Methylthioacetaldehyde O-(N-methylcarbamoyl)oxime]N-[1-methylthio-N', N'-dimethylcarbamoylformaldehyde O-(N-methylcarbamoyl)oxime]sulfide] | 14.1 mg/kg | 1 | 1 | 2 | 1 | 1 | 
CSC(C)=NOC(=O)N(C)SN(C)C(=O)ON=C(C)C(=O)c1ccccc1 [XLI] |  | 1 | 1 | 1 | 1 | 1 | 1
